{
  "source": "paper PMC7275090",
  "about": "“Mode of action of teixobactins in cellular membranes” (Nature Communications, 2020)",
  "key": {"[1]": {"assay": "Isothermal titration calorimetry: LUVs containing Lys-Lipid II titrated into [R4L10]-teixobactin", "assay_type": "binding", "conditions": "neutral DOPC membranes, LUVs 2% (mol/mol) Lys-Lipid II, citrate phosphate buffer pH ~6, 37 °C, 65 μM peptide in cell; read-out: equilibrium dissociation constant Kd", "procedure": "Preparation of liposomes: For ITC measurements large unilamellar vesicles (LUVs) containing Lys-Lipid II were prepared by incorporating 2% (mol/mol) of Lys-Lipid II in DOPC from the stock solution. The lipids were dried by nitrogen stream and hydrated with 10 mM HEPES, 150 mM NaCl, pH 7.5 buffer to a lipid-phosphate concentration of ~20 mM. LUVs were obtained after 10 rounds of extrusion through 200 nm membrane filters (Whatman Nuclepore, Track-Etch Membranes). The liposomes were dialysed to citrate phosphate buffer (100 mM NaCl, 50 mM citric acid, 100 mM Na2HPO4, pH ~6). Anionic LUVs were prepared by mixing 25% (mol/mol) DOPG and 75% (mol/mol) DOPC and then incorporating 2% (mol/mol) Lys-Lipid II. All other steps were the same as for zwitterionic LUVs.\nITC was performed with the Low Volume NanoITC (Waters LLC, New Castle, DE, USA) to determine interaction between LUVs and [R4L10]-teixobactin. [R4L10]-teixobactin was diluted in a citrate phosphate buffer (100 mM NaCl, 50 mM citric acid, 100 mM Na2HPO4, pH ~6) to a final concentration of 65 μM. Samples were degassed before use. The chamber was filled with 164 μL of [R4L10]-teixobactin, and the LUVs were titrated into the chamber at a rate of 1.96 μL/300 s with a stirring rate of 300 rpm. Experiments were performed at 37 °C and analysed using the Nano Analyse Software (Waters LLC). […]"}, "[2]": {"assay": "Pyrene excimer fluorescence of pyrene-labelled Lipid II in DOPC LUVs (oligomerisation)", "conditions": "0.5 mol% pyrene-Lipid II, pH 8.0, 20 °C", "procedure": "The oligomerisation of fluorescent pyrene-labelled Lipid II was observed upon binding of [R4L10]-teixobactin. DOPC LUVs containing 0.5 (mol%) of pyrene-labelled Lipid II in buffer (10 mM Tris–Cl, 100 mM NaCl, pH 8.0) were prepared as described above. All fluorescence experiments were performed with a Cary Eclipse (FL0904M005) fluorometer. All samples (1.0 mL) were continuously stirred in a 10 × 4-mm quartz cuvette and kept at 20 °C. [R4L10]-teixobactin was titrated to the LUVs. Pyrene fluorescence was followed with spectral recordings between 360 and 550 nm (λex 350 nm, bandwidth 5 nm). The emission at 380 and 495 nm was recorded and averaged over 50 s, to obtain the values for the monomer and excimer intensity, respectively, to determine the excimer over monomer ratio for all conditions. […]\n398, and 417 nm. Moreover, pyrene can display a characteristic fluorescence peak at longer wavelengths (490 nm), which occurs only when two pyrene rings reside within 10 Å of each other and form an excited state dimer, which known as an excimer.2 Source data are provided as a Source Data file. a) Fluorescence spectra of pyrene-labelled Lipid II symmetrically in large unilamellar vesicles (LUVs) at increasing concentrations of [R4L10]-teixobactin. […]\nc) Quantification of the excimer over monomer ratio as a function of the pyrene-labelled Lipid II concentration. […]"}, "[3]": {"assay": "ssNMR 15N T1rho relaxation (dynamics of bound teixobactin), mDAP-Lipid II", "conditions": "950 MHz, 60 kHz MAS", "procedure": "(§1) Relaxation studies: ^1H-detected ^15N T1rho relaxation experiments were carried out at 950 and 700 MHz magnetic field, respectively, using 60 kHz MAS[51]. The ^15N transverse magnetization decay was probed with a ^15N spinlock field of 17.5 kHz. For the bulk, we measured the intensity of the most intense signal at ~8.80 ^1H ppm. T1rho trajectories were fit to single exponentials.\n(§2) Lipid I or II-doped multi-laminar vesicle preparations: DOPC or DOPG lipids were mixed with Lipid I or II in 1:1 MeOH:CHCl3 at the final Lipid I or II molar ratio (0–4 mol%/mol). The mixtures were dried and the lipid films were hydrated by vortexing with 2 mL of a teixobactin solution in 40 mM phosphate, 25 mM NaCl, pH 7.0.\n(§3) SSNMR samples: MLVs were collected by centrifugation (20,000×g) and loaded into ssNMR rotors. For 3.2 mm rotors, we used 800 nmol of antibiotic with unlabelled Lipid II or I, while we used 400 nmol with labelled Lipid II. For 1.3 mm rotors, samples contained 200 nmol of antibiotic for unlabelled Lipid II or I, while we used 100 nmol for labelled Lipid II. For all ssNMR samples, we used 4 mol%/mol Lipid II or I in the MLVs."}, "[4]": {"assay": "ssNMR 15N T1rho relaxation (dynamics of bound teixobactin), Lys-Lipid I", "conditions": "bound to Lys-Lipid I in DOPC (Lys-LI PC), 950 MHz, 60 kHz MAS", "procedure": "as §1, §2, §3"}, "[5]": {"assay": "31P and 2D 1H31P ssNMR of pyrophosphate binding interface", "conditions": "membranes", "description": "Structural studies: To probe intermolecular contacts between ^13C,^15N-labelled [R4L10]-teixobactin molecules bound to unlabelled (^12C,^14N) Lipid II, we ran 2D ^13C^13C PARIS experiments with magnetization transfer times of 50, 300, 600, and 1000 ms at 950 MHz and 15.5 kHz MAS. To probe interfacial contacts between ^13C,^15N-labelled [R4L10]-teixobactin and ^13C,^15N-labelled Lipid II, we ran 2D ^13C^13C PARIS experiments with magnetization transfer times of 25, 50, 600, and 1000 ms at 950 MHz and 18 kHz MAS. 1D ^31P CP experiments were acquired at 500 MHz with 12 kHz MAS. The 2D ^1H^31P experiment was acquired at 800 MHz magnetic field and 60 kHz MAS using 1.75 ms CP transfer from ^1H to ^31P.\nas §3"}, "[6]": {"assay": "Mobility-edited ssNMR: membrane topology of Lipid II-bound teixobactin", "conditions": "2D 1H(1H)13C, 700 MHz, 300 K", "procedure": "Topological studies: The mobility-edited 2D ^1H(^1H)^13C experiment[22] was performed at 700 MHz with 16.5 kHz MAS at 300 K temperature using a T2 relaxation filter of 2.5 ms. After dephasing of the rigid signals, magnetization from mobile lipid and water molecules was transferred to the rigid antibiotic with 5 ms ^1H–^1H mixing, and subsequently transferred to ^13C nuclei of [R4L10]-teixobactin with a short (200 μs) cross-polarization step."}, "[7]": {"conditions": "bound to mDAP-Lipid II in DOPC (DAP-LII_PC)"}, "[8]": {"conditions": "bound to mDAP-Lipid II in DOPG (DAP-LII_PG)"}},
  "note": "pKd: −log10 of the molar value. Bridge positions count the residues as written; N and C are the ends. Square brackets hold non-standard residues; d marks the D form. Ends that are not written are not given here. d(aIle) = CC[C@H](C)[C@@H](N)C(=O)O; dNMeF = CN[C@H](Cc1ccccc1)C(=O)O",
  "data": [
    {"substance": "D-Arg4-Leu10-teixobactin ([dNMeF]IS[dR][d(aIle)]IS[dT]ALI; ester 8-C; also: 13C,15N labels at Ile2, Ser3, Ile6, Ser7 and one Ala (residue not fully stated)) [[R4L10]-teixobactin, teixobactin analogue in which D-Gln4 and L-allo-enduracididine10 are replaced by D-Arg4 and L-Leu10]", "values": [
      {"measurement": "pKd", "setting": "[1]", "value": 6.77},
      {"measurement": "speed of Lipid II oligomerization after addition", "setting": "[2]", "value": "virtually immediately"},
      {"measurement": "Bulk 15N R1rho", "setting": "[3]; [7]", "value": 22.15, "unit": "s⁻¹"},
      {"measurement": "Bulk 15N T1rho", "setting": "[3]; [7]", "value": 45.14, "unit": "ms"},
      {"measurement": "Bulk 15N R1rho", "setting": "[3]; [8]", "value": 36.17, "unit": "s⁻¹"},
      {"measurement": "Bulk 15N T1rho", "setting": "[3]; [8]", "value": 27.65, "unit": "ms"},
      {"measurement": "Bulk 15N R1rho", "setting": "[4]", "value": 21.70, "unit": "s⁻¹"},
      {"measurement": "Bulk 15N T1rho", "setting": "[4]", "value": 46.09, "unit": "ms"},
      {"measurement": "coordination of Lipid II pyrophosphate", "setting": "[5]", "value": "directly coordinate the pyrophosphate"},
      {"measurement": "membrane localization of Lipid II-bound peptide", "setting": "[6]", "value": "localizes at the water–membrane interface with the non-polar residues Ile2 and Ile6 partitioned in the bilayer"}
    ]}
  ]
}
